US6417187B2, “1,2,4-triazole based compounds that can be used as insecticides or acaricides and processes” (Dow AgroSciences LLC, priority 2000, dated 2002)
Where two headings read alike, the source gives them in different places.

Columns and labels:
Format in all cases: in vivo
[1] = tested on: two-spotted spider mite (Tetranychus urticae); assay: Insecticidal test for two-spotted spider mite, ovicide method; conditions: for pest or weed control at 2.5 ppm: Tetranychus urticae, foliar, 144 h, read-out: SM: activity at 2.5 ppm against two-spotted spider mite (% Control rating)
[2] = tested on: Brown Planthopper (Nilaparvata lugens); assay: Insecticidal test for Brown Planthopper (rice seedling roots in test solution)
[3] = tested on: cabbage looper (Trichoplusia ni); assay: Insecticidal test for cabbage looper (cabbage leaf-disc dip); conditions: for pest or weed control at 400 ppm: Trichoplusia ni, 120 h, read-out: CL: activity at 400 ppm against cabbage looper (% Control rating)
[4] = tested on: beet armyworm (Spodoptera exigua); assay: Insecticidal test for beet armyworm (treated lepidopteran diet); conditions: for pest or weed control at 400 ppm: Spodoptera exigua, 120 h, read-out: BAW: activity at 400 ppm against beet armyworm (% Control rating)
[5] = tested on: tobacco budworm (Heliothis virescens); assay: Insecticidal test for tobacco budworm (cotton cotyledon leaf-disc dip); conditions: for pest or weed control at 400 ppm: Heliothis virescens, 120 h, read-out: TBW: activity at 400 ppm against tobacco budworm (% Control rating)
[6] = tested on: Green Leafhopper (Nephotettix cincticeps); assay: Insecticidal test for Green Leafhopper (rice seedling roots in test solution)
[7] = tested on: cotton aphid (Aphis gossvpii); assay: Insecticidal test for cotton aphid (squash cotyledon spray); conditions: for pest or weed control at 50 ppm: 72 h, read-out: CA: activity at 50 ppm against cotton aphid (% Control rating)
[8] = tested on: Sweetpotato Whitefly (Bemisia tabacia); assay: Insecticidal test for Sweetpotato Whitefly (cotton plant spray); conditions: for pest or weed control at 200 ppm: Bemisia, 312 h, read-out: WF: activity at 200 ppm against whitefly (% Control rating)
[9] = 10 ppm test solution, rice seedling roots, 3rd instar nymphs, mortality at 6 days
[10] = 400 ppm, cabbage leaf-dip, 2nd instar larvae, 5 days
[11] = 400 ppm, treated diet, second-instar larvae, 5 days
[12] = 400 ppm, cotton cotyledon leaf-dip, 2nd instar larvae, 5 days
[13] = 50 ppm spray on infested squash cotyledons, 3 days, population reduction versus untreated
[14] = 200 ppm spray on cotton plants, 13 days, reduction of large nymphs
[15] = 2.5 ppm (table footnote), ovicide method on cotton leaf discs, 6 days

| SMILES | BPH: activity at 10 ppm against brown planthopper (% Control rating) [2, 9] | pest or weed control at 400 ppm [3, 10] | pest or weed control at 400 ppm [5, 12] | GLH: activity at 10 ppm against green leafbopper (% Control rating) [6, 9] | pest or weed control at 50 ppm [7, 13] | pest or weed control at 200 ppm [8, 14] | SM: activity at 2.5 ppm against two-spotted spider mite (% Control rating) [1, 15] | CL: activity at 400 ppm against cabbage looper (% Control rating) [3, 10] | BAW: activity at 400 ppm against beet armyworm (% Control rating) [4, 11] | WF: activity at 200 ppm against whitefly (% Control rating) [8, 14] | CA: activity at 50 ppm against cotton aphid (% Control rating) [7, 13] | further results |
| --- | --- | --- | --- | --- | --- | --- | --- | --- | --- | --- | --- | --- |
| Cn1nc(-c2c(F)cccc2Cl)nc1-c1sc(C#C[Si](C)(C)C)c(Cl)c1Cl [Compound 1, 1-Methyl-3-(2-chloro-6-fluorophenyl)-5-(3,4-dichloro-5-(2-trimethylsilyl-ethynyl)-thien-2-yl) [1 2,4]triazole] | F (less than 50) | 90 to 100% | 90 to 100% | B (80-89) | 50 to 59% | < 50% |  |  |  |  |  | pest or weed control at 2.5 ppm ([1]; in Gossypium hirsutum): 80 to 89%; pest or weed control at 400 ppm [4, 11]: 90 to 100% |
| Cn1nc(-c2c(F)cccc2Cl)nc1-c1sc(C#CC(C)(C)C)c(Cl)c1Cl [Compound 3] |  | 90 to 100% | 60 to 69% |  | 90 to 100% | < 50% |  |  |  |  |  | pest or weed control at 2.5 ppm [1, 15]: 80 to 89% |
| Cn1nc(-c2c(F)cccc2Cl)nc1-c1sc(C#Cc2ccccc2)c(Cl)c1Cl [Compound 4] | E (50-59) | 90 to 100% | < 50% |  | 80 to 89% | < 50% |  |  |  |  |  | pest or weed control at 2.5 ppm [1, 15]: 60 to 69%; pest or weed control at 400 ppm [4, 11]: 90 to 100% |
| Cn1nc(-c2c(F)cccc2Cl)nc1-c1sc(C#Cc2cccc(F)c2F)c(Cl)c1Cl [Compound 27] | E (50-59) |  |  | F (less than 50) |  |  | F (less than 50) | A (90-100) | A (90-100) | D (60-69) |  | TBW: activity at 400 ppm against tobacco budworm (% Control rating) [5, 12]: D (60-69) |
| CCN(CC)c1ncc(C#Cc2sc(-c3nc(-c4c(F)cccc4Cl)nn3C)c(Cl)c2Cl)cn1 [Compound 41] | E (50-59) | 80 to 89% | 60 to 69% |  | < 50% | < 50% |  |  |  |  |  | pest or weed control at 2.5 ppm [1, 15]: < 50%; pest or weed control at 400 ppm [4, 11]: 90 to 100% |
| CCCCCCc1ccc(C#Cc2sc(-c3nc(-c4c(F)cccc4Cl)nn3C)c(Cl)c2Cl)cc1 [Compound 54] |  |  |  |  |  |  |  |  |  |  |  | BPH: activity at 10 ppm against brown planthopper (% Control rating) ([2]; in vivo): F (key: A: 90-100; B: 80-89; C: 70-79; D: 60-69; E: 50-59; F: less than 50; G: inactive); CL: activity at 400 ppm against cabbage looper (% Control rating) ([3]; in vivo): B (key: A: 90-100; B: 80-89; C: 70-79; D: 60-69; E: 50-59; F: less than 50; G: inactive); BAW: activity at 400 ppm against beet armyworm (% Control rating) ([4]; in vivo): A (key: A: 90-100; B: 80-89; C: 70-79; D: 60-69; E: 50-59; F: less than 50; G: inactive); TBW: activity at 400 ppm against tobacco budworm (% Control rating) ([5]; in vivo): A (key: A: 90-100; B: 80-89; C: 70-79; D: 60-69; E: 50-59; F: less than 50; G: inactive); GLH: activity at 10 ppm against green leafbopper (% Control rating) ([6]; in vivo): F (key: A: 90-100; B: 80-89; C: 70-79; D: 60-69; E: 50-59; F: less than 50; G: inactive); CA: activity at 50 ppm against cotton aphid (% Control rating) ([7]; in vivo): E (key: A: 90-100; B: 80-89; C: 70-79; D: 60-69; E: 50-59; F: less than 50; G: inactive); WF: activity at 200 ppm against whitefly (% Control rating) ([8]; in vivo): F (key: A: 90-100; B: 80-89; C: 70-79; D: 60-69; E: 50-59; F: less than 50; G: inactive) |
| CCCCCCCc1ccc(C#Cc2sc(-c3nc(-c4c(F)cccc4Cl)nn3C)c(Cl)c2Cl)cc1 [Compound 55] |  |  |  |  |  |  |  |  |  |  |  | BPH: activity at 10 ppm against brown planthopper (% Control rating) ([2]; in vivo): F (key: A: 90-100; B: 80-89; C: 70-79; D: 60-69; E: 50-59; F: less than 50; G: inactive); CL: activity at 400 ppm against cabbage looper (% Control rating) ([3]; in vivo): A (key: A: 90-100; B: 80-89; C: 70-79; D: 60-69; E: 50-59; F: less than 50; G: inactive); BAW: activity at 400 ppm against beet armyworm (% Control rating) ([4]; in vivo): A (key: A: 90-100; B: 80-89; C: 70-79; D: 60-69; E: 50-59; F: less than 50; G: inactive); TBW: activity at 400 ppm against tobacco budworm (% Control rating) ([5]; in vivo): D (key: A: 90-100; B: 80-89; C: 70-79; D: 60-69; E: 50-59; F: less than 50; G: inactive); GLH: activity at 10 ppm against green leafbopper (% Control rating) ([6]; in vivo): F (key: A: 90-100; B: 80-89; C: 70-79; D: 60-69; E: 50-59; F: less than 50; G: inactive); CA: activity at 50 ppm against cotton aphid (% Control rating) ([7]; in vivo): F (key: A: 90-100; B: 80-89; C: 70-79; D: 60-69; E: 50-59; F: less than 50; G: inactive); WF: activity at 200 ppm against whitefly (% Control rating) ([8]; in vivo): F (key: A: 90-100; B: 80-89; C: 70-79; D: 60-69; E: 50-59; F: less than 50; G: inactive) |
| Cc1c(C#Cc2ccccc2)csc1-c1nc(-c2c(F)cccc2Cl)nn1C [Compound 67] |  |  |  |  |  |  | B (80-89) |  | A (90-100) | F (less than 50) | A (90-100) | TBW: activity at 400 ppm against tobacco budworm (% Control rating) [5, 12]: B (80-89) |
| CCCc1ccc(C#Cc2cc(C)c(-c3nc(-c4c(F)cccc4Cl)nn3C)s2)cc1 [Compound 72] | F (less than 50) |  |  |  |  |  | F (less than 50) | B (80-89) | A (90-100) | F (less than 50) | C (70-79) |  |
| CCCCC#Cc1cncc(-c2nc(-c3c(Cl)cncc3Cl)nn2C)c1 [Compound 86] | F (less than 50) |  |  | F (less than 50) |  |  | C (70-79) |  |  | F (less than 50) | E (50-59) |  |
| Cn1nc(-c2c(F)cccc2Cl)nc1-c1ccc(C#Cc2ccc(F)cc2)c(Cl)c1Cl [Compound 92] | F (less than 50) |  |  | F (less than 50) |  |  | F (less than 50) | A (90-100) | A (90-100) | F (less than 50) | A (90-100) |  |
| Cn1nc(-c2c(F)cccc2Cl)nc1-c1ccc(C#C[Si](C)(C)C)c(Cl)c1Cl [Compound 96] |  |  |  |  |  |  | D (60-69) | A (90-100) | A (90-100) | F (less than 50) | D (60-69) | TBW: activity at 400 ppm against tobacco budworm (% Control rating) [5, 12]: F (less than 50) |
